# Assay results as given in patent EP4700025A1, “AMIDE COMPOUND, PHARMACEUTICAL COMPOSITION COMPRISING SAME, AND USE THEREOF” (Suzhou Genhouse Bio Co., Ltd., priority 2023, dated 2024).
# Like-named read-outs stand apart in the source and are kept apart here.
# Key:
# [1] = Pharmacokinetic assay in mice; type: in vivo, Balb/c mice; settings: mouse; for MRT inf: read-out: MRT(0-∞)
# Procedure: Eighteen male Balb/c mice aged 6 to 8 weeks were randomly divided into 2 groups (IV group and PO group). The corresponding compounds were administered to the animals in the IV group by tail intravenous injection at 2 mg/kg, and the corresponding compounds were administered to the animals in the PO group by oral gavage at 10 mg/kg or 100 mg/kg. The animals in the IV group were allowed free access to food and water, and the animals in the PO group were fasted overnight before administration and were fed 4 h after administration. Throughout the experiment, the animals were allowed free access to water. Plasma samples were separately collected at 0.083 h (only group IV), 0.25 h, 0.5 h, 1 h, 2 h, 4 h, 8 h, and 24 h after administration. About 100 µL of blood was collected from the orbit of the animal, placed into a 1.5 mL anticoagulation centrifuge tube, and centrifuged at 8000 rpm and 4 °C for 10 min. The upper plasma sample was transferred to an EP tube. The plasma samples were stored in a refrigerator at -80 °C until sample analysis. Pharmacokinetic parameters of the drug were calculated based on the drug concentration-time data, including the peak concentration Cmax, peak time Tmax, clearance rate CL, steady state apparent volume of distribution Vss, area under drug-time curve AUC, elimination half-life t1/2, bioavailability, and the like. Data below the 80% lower limit of quantification were excluded from the calculation of pharmacokinetic parameters.
# [2] = Pharmacokinetic assay in rats; type: in vivo, SD rats; settings: rat
# Procedure: In this experimental example, the pharmacokinetic behavior of the test compounds after administration by intravenous injection (IV) and oral gavage (PO) in SD rats was tested.
# On the day of administration, rats were weighed for actual body weight, and the administration volume was calculated. Each compound was tested in two groups with 3 rats in each group; one group was subjected to administration by single intravenous injection, and the other group was subjected to administration by single oral gavage. The whole blood samples were collected via the jugular vein at prescribed time points (0.25 h, 0.5 h, 1 h, 2 h, 4 h, 8 h, and 24 h after administration). After the blood sample collection, the samples were immediately transferred to labeled commercial sample tubes containing K2-EDTA (0.85-1.15 mg), followed by centrifugation (3200× g, 4 °C, 10 min) and plasma collection. The plasma was transferred to a pre-cooled centrifuge tube, frozen in dry ice, and then stored in an ultra-low temperature freezer at -60 °C or lower until the LC-MS/MS analysis was performed.
# Plasma concentrations were determined by the LC-MS/MS method. Plasma drug concentration data for the compounds were processed using a non-compartmental model in the WinNonlin Version 6.3 (Pharsight, Mountain View, CA) pharmacokinetic software. The relevant pharmacokinetic parameters were calculated by a linear-log trapezoidal method.
# [3] = target: T1, hERG Potassium Ion Channel (Homo sapiens, UniProt Q12809); assay: Effect on hERG potassium ion channel (whole-cell patch clamp, HEK293 cells); type: cell-based; settings: whole-cell patch clamp (Qpatch), room temperature
# T1 construct: expressed in transfected cells; host or cells: HEK293
# T1 sequence (Q12809 whole entry): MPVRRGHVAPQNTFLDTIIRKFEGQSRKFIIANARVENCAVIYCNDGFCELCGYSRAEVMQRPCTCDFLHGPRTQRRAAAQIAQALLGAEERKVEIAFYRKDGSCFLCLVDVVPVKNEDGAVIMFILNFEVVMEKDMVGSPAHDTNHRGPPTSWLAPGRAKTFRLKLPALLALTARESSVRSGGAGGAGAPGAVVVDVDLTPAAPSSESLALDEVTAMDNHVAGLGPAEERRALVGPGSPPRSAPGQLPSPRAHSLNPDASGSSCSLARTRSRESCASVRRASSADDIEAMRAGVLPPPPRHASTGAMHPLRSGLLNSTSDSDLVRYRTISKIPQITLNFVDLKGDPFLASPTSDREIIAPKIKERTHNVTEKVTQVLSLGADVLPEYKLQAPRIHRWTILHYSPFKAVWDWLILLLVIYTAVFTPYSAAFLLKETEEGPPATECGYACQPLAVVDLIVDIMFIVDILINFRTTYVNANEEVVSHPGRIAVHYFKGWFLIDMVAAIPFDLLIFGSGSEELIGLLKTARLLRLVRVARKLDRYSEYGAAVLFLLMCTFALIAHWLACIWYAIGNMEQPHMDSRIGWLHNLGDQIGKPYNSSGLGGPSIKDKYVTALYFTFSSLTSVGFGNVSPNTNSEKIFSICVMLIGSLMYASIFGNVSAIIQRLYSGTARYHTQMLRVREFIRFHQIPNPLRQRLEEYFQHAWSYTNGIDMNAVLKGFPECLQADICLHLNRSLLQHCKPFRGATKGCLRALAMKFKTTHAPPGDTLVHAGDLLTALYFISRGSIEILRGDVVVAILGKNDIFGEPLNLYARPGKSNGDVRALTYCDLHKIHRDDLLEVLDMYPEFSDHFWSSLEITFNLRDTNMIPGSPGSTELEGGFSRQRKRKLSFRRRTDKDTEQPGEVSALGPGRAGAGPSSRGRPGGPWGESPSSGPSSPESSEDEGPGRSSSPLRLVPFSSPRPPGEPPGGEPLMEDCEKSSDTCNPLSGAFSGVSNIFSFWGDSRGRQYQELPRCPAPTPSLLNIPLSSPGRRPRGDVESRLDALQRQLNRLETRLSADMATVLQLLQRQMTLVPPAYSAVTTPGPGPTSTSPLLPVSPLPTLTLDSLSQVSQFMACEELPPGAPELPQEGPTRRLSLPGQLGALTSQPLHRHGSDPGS
# Procedure: HEK293 cells were cultured in a DMEM medium containing 10% fetal bovine serum and 0.8 mg/mL G418 at 37 °C with 5% CO2. The cells were digested by TrypLE™ Express and then centrifuged. The cell density was adjusted to 2 × 10^6 cells/mL. The cells were then gently mixed for 15 to 20 min using a shaker equilibrated at room temperature, and subjected to a patch clamp assay on a machine. The culture medium of the prepared cells was replaced with extracellular fluid. The intracellular fluid and the extracellular fluid were taken from the fluid pool and added to the intracellular fluid pool and the cell and test substance pool of the QPlate chip, respectively. The voltage stimulation of the whole-cell hERG potassium current was recorded by the whole-cell patch clamp, and the experimental data were collected and stored by Qpatch. […] The current detected in compound-free extracellular fluid for each cell served as its own control group, and the detection was repeated twice independently using at least two cells per concentration. […] For data analysis, the current after the action of each drug concentration and the current of the blank control were standardized ((Peak tail currentcompound)/(Peak tail currentvehicle)) [formula] , and then the inhibition rate corresponding to each drug concentration was calculated (1−(Peak tail currentcompound)/(Peak tail currentvehicle)) [formula] . […]
# PRMT5 = PRMT5 (Homo sapiens, UniProt O14744); assay: Inhibitory activity against enzymatic activity of PRMT5 (fluorescence polarization); type: biochemical; settings: PRMT5 25 nM, SAM 1 µM, polypeptide 1 µM, MTA 2 µM; 37 °C 2 hours
# PRMT5, sequence (O14744 whole entry): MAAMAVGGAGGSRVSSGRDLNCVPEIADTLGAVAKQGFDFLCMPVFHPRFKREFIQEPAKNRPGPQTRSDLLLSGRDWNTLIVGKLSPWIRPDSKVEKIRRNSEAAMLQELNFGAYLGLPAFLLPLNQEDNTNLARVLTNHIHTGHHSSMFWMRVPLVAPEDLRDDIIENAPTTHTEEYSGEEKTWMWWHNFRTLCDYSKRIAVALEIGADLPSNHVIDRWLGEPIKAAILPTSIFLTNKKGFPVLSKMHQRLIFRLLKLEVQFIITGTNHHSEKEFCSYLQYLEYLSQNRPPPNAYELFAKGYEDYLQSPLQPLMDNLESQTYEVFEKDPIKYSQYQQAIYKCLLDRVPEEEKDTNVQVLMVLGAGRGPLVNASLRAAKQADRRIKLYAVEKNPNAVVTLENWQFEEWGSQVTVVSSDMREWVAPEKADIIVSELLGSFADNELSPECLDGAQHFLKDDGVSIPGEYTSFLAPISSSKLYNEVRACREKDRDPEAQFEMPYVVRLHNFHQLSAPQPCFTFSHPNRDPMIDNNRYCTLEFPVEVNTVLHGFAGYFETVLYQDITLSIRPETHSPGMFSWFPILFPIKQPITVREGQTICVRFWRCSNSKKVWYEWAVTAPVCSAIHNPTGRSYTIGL
# PRMT5, sequence (Q9BQA1 whole entry partner): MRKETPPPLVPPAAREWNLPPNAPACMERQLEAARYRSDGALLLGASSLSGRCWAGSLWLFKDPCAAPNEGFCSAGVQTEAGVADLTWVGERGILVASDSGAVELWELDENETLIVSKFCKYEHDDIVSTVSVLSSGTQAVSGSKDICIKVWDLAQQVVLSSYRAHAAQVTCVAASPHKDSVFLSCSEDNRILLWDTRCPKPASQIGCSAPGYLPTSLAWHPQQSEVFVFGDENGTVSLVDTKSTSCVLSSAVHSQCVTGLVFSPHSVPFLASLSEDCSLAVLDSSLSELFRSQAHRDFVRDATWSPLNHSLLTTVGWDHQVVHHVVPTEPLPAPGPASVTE
# Procedure: The compounds were prepared into 10 mM stock solutions using DMSO, and then 9 concentration gradients (with an initial concentration of 10 µM followed by 1:5 dilution) were prepared using a buffer (50 mM Tris-HCl pH 8.5, 5 mM MgCl2, 4 mM DTT, 0.01% Triton X-100, 0.1 M NaCl, 0.5% DMSO), and each well received 5 µL of the diluted compound solutions. SAM, a polypeptide, and MTA were prepared using a buffer to final concentrations of 1 µM, 1 µM, and 2 µM, respectively, and were added to each well in a total of 5 µL. Meanwhile, an MTA-free group was set as a control. […] Subsequently, a mixture of 2.5 µL of stop buffer A, 2.5 µL of an 8× MT assay mixture (final concentration: 1×), and 24 µg/mL AMP2/GMP2 antibodies (final concentration: 3 µg/mL) was added. The resulting mixture was incubated at room temperature for 1.5 hours, and fluorescence polarization (FP) was measured (Ex 633, Em 647). Meanwhile, negative control wells without protein (Blank) and positive control wells without compound (DMSO) were set. Each experiment was independently repeated three times.
# Data processing: The numerical values of each group were recorded for statistical analysis, and the inhibition rate was calculated according to the following formula: inhibition percentage of compound wells (% inh) = [1 - (ave Blank - Cpd well)/(ave Blank - ave DMSO control)] × 100. Note: ave represents the average value, and Cpd represents the numerical value of the wells containing the compound. A sigmoidal dose-inhibition rate curve was plotted and fitted using a nonlinear regression model in the GraphPad Prism 7.0 software, and the IC50 value was calculated. Table 1. Inhibitory activity of compounds against enzymatic activity of PRMT5
# HCT-116 = assay: CCK8 proliferation inhibition, HCT-116; type: cell-based; settings: Homo sapiens, 192 h, CCK8, 8 days after drug treatment
# HCT-116-MTAP^-/- = assay: CCK8 proliferation inhibition, HCT-116-MTAP^-/-; type: cell-based; settings: Homo sapiens, 192 h; HCT-116-MTAP^-/- (MTAP-deficient); CCK8, 8 days after drug treatment
# A549 = assay: CCK8 proliferation inhibition, A549; type: cell-based; settings: Homo sapiens, 192 h, CCK8, 8 days after drug treatment
# SDMA [4] = assay: SDMA Inhibition Assay in HCT-116 cells; type: cell-based; settings: Homo sapiens, HCT-116, 96 hours
# SDMA [5] = assay: SDMA Inhibition Assay in HCT-116-MTAP^-/- cells; type: cell-based; settings: Homo sapiens, 96 hours
# SDMA [6] = assay: SDMA Inhibition Assay in A549 cells; type: cell-based; settings: Homo sapiens, A549, 96 hours
# HCT-116-MTAP^-/- cells = assay: Pharmacodynamic study, HCT-116-MTAP^-/- subcutaneous xenograft; type: in vivo, mouse; settings: HCT-116-MTAP^-/- xenograft, 60 mpk PO QD
# Procedure: Human colon cancer HCT-116-MTAP^-1- cells were cultured in monolayer in vitro using the McCoy 5A culture medium (HyClone) containing 10% fetal bovine serum (BI) and 1% penicillin and streptomycin (Beyotime) in an incubator at 37 °C with 5% CO2. The cells were digested with trypsin 2 to 3 times weekly for passaging. When the saturation degree of the cells was 80% to 90%, the cells were collected, counted, and inoculated. 5 × 10^6 (0.1 mL) HCT-116-MTAP^-/- cells were subcutaneously inoculated on the right back of each mouse. On about day 15 after inoculation of the cells, the mean tumor volume reached 172 mm^3. The mice were randomly grouped for administration (the animals were divided into an administration group and a control group, with 6 animals in each group). The day of grouping was designated as d0, and intragastric administration was started on d1. The administration was performed once daily at an administration volume of 10 mL/kg. Vehicle control was administered to the control group. The tumor volume was measured 2 to 3 times weekly, and meanwhile, the mice were weighed and the data were recorded; daily observations were made to record the body surface signs of the mice. After the experiment was completed, the tumors were collected, weighed, and photographed for recording.
# Calculation formula for tumor volume: Tumor volume (mm^3) = 1/2 × (a×b^2) [formula] (note: a represents long diameter and b represents short diameter) [formula]
# [7] = male, Balb/c, plasma, 2 mg/kg, IV 2mpk
# [8] = male, Balb/c, plasma, 100 mg/kg, PO 100mpk
# [9] = SD, plasma, 100 mg/kg, PO 100mpk
# [10] = male, Balb/c, plasma, 10 mg/kg, PO 10mpk
smiles,measurement,setting,value
"Cn1ncc2c(N)nc3cnc(C(=O)N4CCOC[C@@H]4c4ccc(C(F)(F)F)cc4)cc3c21 [Control compound A, reference compound]",AUC(0-t),[1]; [7],9.6 µM·h
same,AUC(0-t),[1]; [8],455 µM·h
same,Cmax,[1]; [8],35.7 µM
same,AUC(0-t),"[2]; SD, plasma, 2 mg/kg, IV 2mpk",4.75 µM·h
same,AUC(0-t),[2]; [9],122 µM·h
same,Cmax,[2]; [9],5.42 µM
same,F,[2]; PO 100mpk vs IV 2 mpk,51%
same,IC50,[3],13000 nM
CN(Cc1ccc2c(c1)OC(F)(F)O2)C(=O)c1cc2c(cc1F)nc(N)c1cnn(C)c12 [Example I-1],IC50,PRMT5,48.5 nM
same,EC50,HCT-116,3230 nM
same,EC50,HCT-116-MTAP^-/-,4.2 nM
same,EC50,A549,41.8 nM
same,EC50,SDMA [4],220 nM
same,EC50,SDMA [5],1.5 nM
same,EC50,SDMA [6],1.4 nM
same,AUC(0-inf),[1]; [7],5.69 µM·h
same,AUC(0-t),[1]; [7],5.45 µM·h
same,C0,[1]; [7],3.52 µM
same,MRT inf,[1]; [7],2.3 h
same,Vd,"[1]; male, Balb/c, plasma, 2 mg/kg, IV 2mpk, read-out: Vz",2 L/kg
same,AUC(0-inf),[1]; [10],18.4 µM·h
same,AUC(0-t),[1]; [10],18.1 µM·h
same,Cmax,[1]; [10],3.24 µM
same,Tmax,[1]; [10],1 h
same,MRT inf,[1]; [10],5.5 h
same,CLz,[1]; IV 2mpk,13 mL/min/kg
same,R_AUC(t/∞),[1]; IV 2mpk,95.8%
same,t1/2z,[1]; IV 2mpk,1.8 h
same,R_AUC(t/∞),[1]; PO 10mpk,98.3%
same,t1/2z,[1]; PO 10mpk,4.1 h
same,F,[1]; PO 10mpk vs IV 2mpk,64.7%
same,Day 28 TGI,HCT-116-MTAP^-/- cells,85%
